One data set in a line: BCS classification. Format: physicochemical. Conditions: free base. From the text:
BCS Class 4 compounds normally have low bioavailability due to both low dissolution rate and permeability, and the limitation of permeability on absorption means that such salts would not usually be expected exert a substantial impact on absorption (See for example: Dressman et al. (2001) Pharm Tech. July: 68).

Data set [1] in a line: Plasma levels of Compound 1 in fasted dogs after oral dispersion doses, salt versus free base. Format: in vivo, beagle dogs. Conditions: crystalline salt compared to the free base and other salts. The method, then:
Single doses of 150 mg were administered orally to fasted beagle dogs weighing 12-17 kg and about 2 to 6 years old on each of three dosing days. Each dosing day was 1 week apart.
All formulations were prepared extemporaneously just prior to dosing by adding 7.5 mL of the appropriate dispersing solution via a 10 mL disposable syringe, to vials containing 150 mg free base equivalents of the appropriate drug form, capping and vortex mixing for 30 seconds to form a dispersion.
The dispersion was removed from the vial using the disposable syringe and dosed to the animal via a gavage tube positioned into the stomach. The vials were rinsed twice by adding, for each of the two rinses, a separate 15 mL aliquot of water (total rinse volume=30 mL) via a 20 mL disposable syringe, capping, vortex mixing for 5 seconds, removing the wash solution from the vial using the disposable syringe and dosing to the animal via the gavage tube.
Dogs were fed about 400 g of Special Diet Services Laboratory Diet A each day and allowed water ad libitum. Whole blood (2 mL) in lithium heparin tubes were taken from the jugular vein immediately prior to dosing and at 0.5, 1, 2, 3, 4, 5, 6, 8, 12, 18, 24, 36 and 48 hours. The blood was centrifuged at 3000 rpm for 15 minutes and plasma was removed into plain blood tubes and the plasma stored at −20° C. until analysis. […]

Data set [2] can be described thus: Dissolution rate of the crystalline salt. Format: physicochemical. To be noted: crystalline salt compared to the free base and other salts.

The record followed here is patent publication US9562017B2, “Hydrogen sulfate salt” (Array BioPharma Inc., priority 2005, dated 2017).

Structures can show the parent of a compound that is named as a salt.

Take `Cn1cnc2c(F)c(Nc3ccc(Br)cc3Cl)c(C(=O)NOCCO)cc21` [Compound 1, 6-(4-bromo-2-chloro-phenylamino)-7-fluoro-3-methyl-3H-benzoimidazole-5-carboxylic acid (2-hydroxy-ethoxy)-amide]: the “BCS Class” value in “BCS classification” is reported as “BCS Class 4”.
With `Cn1cnc2c(F)c(Nc3ccc(Br)cc3Cl)c(C(=O)NOCCO)cc21` [hydrogen sulfate salt, 6-(4-bromo-2-chloro-phenylamino)-7-fluoro-3-methyl-3H-benzoimidazole-5-carboxylic acid (2-hydroxy-ethoxy)-amide hydrogen sulfate], the bioavailability result in data set [1] is on record as “particularly high”. The dissolution rate result in data set [2] is listed as “particularly high”.
